US4399137A, “6-Imidazol-1-yl-3-hydrazino-pyridazines, their preparation and antihypertensive use” (BASF Aktiengesellschaft, priority 1979, dated 1983)
Like-named read-outs stand apart in the source and are kept apart here.

Assays:
[1] = system: narcotized rats; assay: Hypotensive action (blood pressure lowering) on narcotized rats, intravenous administration; assay type: in vivo, rat (Sprague Dawley); conditions: for ED20: Rattus norvegicus, dose producing a 20% lowering of blood pressure, read-out: Hypotensive action ED 20%; for ED20 / Hypotensive action R.E. (relative effectiveness) / factor by which blood pressure-lowering doses are lower than the dihydralazine doses: narcotized rats; for ED20 / Hypotensive action R.E. (relative effectiveness): intravenous; for Hypotensive action R.E. (relative effectiveness): dihydralazine = 1.00; for blood pressure-lowering properties (in words): general statement, no specific model named; for factor by which blood pressure-lowering doses are lower than the dihydralazine doses: relative to dihydralazine
Method: The blood pressure was measured in the […]. The substance was administered into the jugular vein (using 1 ml/kg of an aqueous solution). The ED 20% was determined, as the dose producing a 20% lowering of blood pressure, from the linear regression between the logarithm of the dose (mg/kg) and the relative lowering of the blood pressure (Δ%).

[2] = system: mice; assay: Acute toxicity (LD 50), intraperitoneal administration; assay type: in vivo; conditions: mice, intraperitoneal; dihydralazine = 1.00
Method: (§1) To determine the acute toxicity (LD 50), the substances were administered intraperitoneally to groups of 10 female NMRI mice (weighing 20-25 g each).
(§2) The LD 50 was computed (by Probit analysis) as the dose after which 50% of the animals died within 7 days.

[3] = as above; assay type: in vivo; conditions: mouse, in vivo; for LD50 at 168 h: ip, mice, intraperitoneal, 50% of the animals died within 7 days
Method: as §1, §2

[4] = system: spontaneously hypertonic rats; assay: Anti-hypertensive action on spontaneously hypertonic rats (SHR), oral administration; assay type: in vivo, rat (Okamoto; conditions: for ED20: Rattus norvegicus, dose which lowers systolic pressure by 20%, 2 hours after administration, read-out: Anti-hypertensive action ED 20%; for ED20 / Anti-hypertensive action R.E. (relative effectiveness): SHR, oral; for Anti-hypertensive action R.E. (relative effectiveness): dihydralazine = 1.00; for times as effective as dihydralazine: wake spontaneously hypertonic rats
Method: The anti-hypertensive action was determined on spontaneously hypertonic rats (Okamoto). The substances were administered orally to groups of from 4 to 8 male animals. Before, and 2 hours after, administration, the systolic blood pressure was measured on the tail of the rat by means of a piezoelectric crystal sensor. The ED 20 was determined, as the dose which lowers the systolic pressure by 20%, from the linear regression between the logarithm of the dose (mg/kg) and the relative lowering of blood pressure (Δ%), with due account taken of the values found with placebo-treated control animals.

[5] = ratio LD 50 / anti-hypertensive dose, read-out: toxic doses (LD 50) times as great as the anti-hypertensive doses
[6] = LD 50 (mice, i.p.) relative to anti-hypertensive ED 20% (SHR, oral), read-out: Therapeutic range Q

| Compound | ED20 [1] [mg/kg] | Hypotensive action R.E. (relative effectiveness) [1] | Toxicity R.E. [2] | LD50 at 168 h [3] [mg/kg] | selectivity ratio [3, 5] | selectivity ratio [3, 6] | ED20 [4] [mg/kg] | Anti-hypertensive action R.E. (relative effectiveness) [4] | blood pressure-lowering properties (in words) [1] | factor by which blood pressure-lowering doses are lower than the dihydralazine doses [1] | times as effective as dihydralazine [4] |
| --- | --- | --- | --- | --- | --- | --- | --- | --- | --- | --- | --- |
| NNc1nnc(NN)c2ccccc12 [Dihydralazine, dihydralazine, reference compound] | 0.0854 | 1.00 | 1.00 | 206 | 30 | 30.1 | 6.85 | 1.00 |  |  |  |
| Cc1nccn1-c1ccc(NN)nn1 [Example 1 a, 3-Hydrazino-6-(2-methyl-imidazol-1-yl)-pyridazine] | 0.031 | 2.75 | 1.06 | 193 |  | 137 | 1.41 | 4.86 | Particularly active | 2.8 | 4.9 |
| CCc1nccn1-c1ccc(NN)nn1 [Example 1 c, 3-Hydrazino-6-(2-ethyl-imidazol-1-yl)-pyridazine] | 0.0638 | 1.34 | 1.32 | 156 |  | 53.6 | 2.91 | 2.35 | Particularly active | 1.3 | 2.4 |
| CC(C)=NNc1ccc(-n2ccnc2C)nn1 [Example 2 a, 3-(2-Isopropylidene-hydrazino)-6-(2-methyl-imidazol-1-yl)-pyridazine] | 0.0464 | 1.84 | 2.09 | 98.6 | 40 | 40.1 | 2.46 | 2.78 | Particularly active |  |  |
| CCc1nccn1-c1ccc(NN=C(C)C)nn1 [Example 2 b, 3-(2-Isopropylidene-hydrazino)-6-(2-ethyl-imidazol-1-yl)-pyridazine] | 0.0464 | 1.84 | 1.66 | 124 |  | 50.1 | 2.48 | 2.76 | Particularly active |  |  |
